Measurements: patent publication US20130130306A1, “ZN (II) BASED COLORIMETRIC SENSOR AND PROCESS FOR THE PREPARATION THEREOF” (COUNCIL OF SCIENTIFIC & INDUSTRIAL RESEARCH, priority 2010, published 2013)

Tests used:
[1] = system: Bacillus megaterium (Gram +ve); assay: Staining of Gram +ve bacteria, light microscopy; type: cell-based; set-up: change in color of bacterial stains: dose or concentration left out as unconfirmed
Procedure: The isolates of Saccharomyces sp. were cultured in GYE (glucose yeast extract agar) media, Bacillus sp. in Nutrient broth, and Pseudomonas sp. in King's B medium for 24 hour at 37° C. […] of this was taken and was allowed to incubate at 30 to 40° C. along with 100 μl of L.Zn (Scheme 1, Formula 1A) (1.16×10^−4 M) solution. The samples were fixed overnight at room temperature 25-30° C. with 2% (v/v) glutaraldehyde in 0.1 M phosphate buffer at pH 7.5. The samples were then washed with 0.1 M phosphate buffer (pH 7.5) at room temperature 25-30° C. for 1 hour. Post-fixation was carried out in 2% (w/v) osmium tetroxide (OsO4) in the same buffer and was washed once with 0.1 M phosphate buffer for 20 minutes. […]
We also explored the possibility of using L.Zn/L.Zn.α-CD as the staining agent for prokaryotes (Gram +ve and Gram −ve bacterial cells). […] Changes on the cell surfaces on binding of the dye, L.Zn (Scheme 1, Formula 1A) were also evident from the SEM images recorded for Gram −ve and Gram +ve bacteria, in absence and presence of staining agent (FIGS. 11C to 11F). […] The growth profile of Eukaryotic Yeast cells (Saccharomyces cerevisiae) and Prokaryotic bacterial cells ([…]) in an aqueous culture medium in absence and presence of L.Zn (Scheme 1, Formula 1A) are shown in FIG. 12. […]

[2] = system: eukaryotic and prokaryotic (Gram +ve/Gram −ve) cells; assay: Staining of eukaryotic and prokaryotic cells, time needed and differentiation; type: cell-based
Procedure: Using the present Zn(II)-reagent (L.Zn) in presence of α-CD, eukaryotic and prokaryotic (Gram +ve/Gram −ve) cells could be stained with only 2 minutes incubation; while for the previous reagent (1.Zn) cells were needed to be incubated for 10 minutes for color development. Further, intensity of color of the stained cell (using present Zn(II)-complex was much more intense as compared to that reported earlier.
We also explored the possibility of using L.Zn/L.Zn.α-CD as the staining agent for prokaryotes (Gram +ve and Gram −ve bacterial cells). […] As expected stained cells for Gram +ve bacteria appeared longer as compared to those of the stained Gram −ve bacteria. The difference in the staining intensity for two different bacteria with the L.Zn.α-CD (Scheme 2) could be much better understood after going into the depth of cell biology of each bacterial cells and the detailed biochemistry involved while staining; besides, difference in cell structure and cell wall composition of the respective bacteria. […] Changes on the cell surfaces on binding of the dye, L.Zn (Scheme 1, Formula 1A) were also evident from the SEM images recorded for Gram −ve and Gram +ve bacteria, in absence and presence of staining agent (FIGS. 11C to 11F). […] The growth profile of Eukaryotic Yeast cells (Saccharomyces cerevisiae) and Prokaryotic bacterial cells ([…]) in an aqueous culture medium in absence and presence of L.Zn (Scheme 1, Formula 1A) are shown in FIG. 12. Change in absorbance (at λmax=600 nm) vs time (t) was plotted up to 30 h; as no appreciable change in growth was observed thereafter. […] FIGS. 12a, 12c and 12e show the actual growth curve of Saccharomyces cerevisiae, Pseudomonas fluorescence and Bacillus megaterium, respectively with time. While, FIGS. 12b, 12d and 12f show relative build up of ATP in cytoplasm with time for Saccharomyces cerevisiae, Pseudomonas fluorescence and Bacillus megaterium, respectively in presence of L.Zn (Scheme 1, Formula 1A) (D1) and L.Zn.α-CD (Scheme 2) (D2). […]

## CN(C)c1ccc(N=Nc2ccc(S(=O)(=O)N3CCCNCCNCCCNCC3)cc2)cc1.O=[N+]([O-])[O-].O=[N+]([O-])[O-].[Zn+2] [L.Zn]
[1]; Bacillus species in Nutrient broth, sensor 1.0×10^−4 M, 25° C., 10 mins
  growth of colonies streaked on nutrient agar plates after incubation with sensor: colonies of the test microbes grew
[1]; light microscopy
  change in color of bacterial stains: distinct change in color
[2]; in presence of α-CD
  incubation time needed for staining: 2 min
[2]; through different color intensities and shape of the stained cells
  distinguishing Gram +ve and Gram −ve bacteria: could also distinguish Gram +ve and Gram −ve bacteria
[2]; without α-CD
  time in which staining takes place: 10 to 20 min
